Reference: patent publication US20240190886A1, “BRM Targeting Compounds and Associated Methods of Use” (Prelude Therapeutics Incorporated, priority 2022, published 2024)

Legend:
[1] = system: SMARCA4 mutated cancer cells; conditions: SMARCA 2/4 bromodomain inhibitors; literature statement; cited from earlier work
[2] = molecular target: T1, SMARCA4 (Homo sapiens, UniProt P51532); assay: SMARCA4 HiBiT degradation assay in HeLa cells; type: cell-based; conditions: 18 hours incubation, Nano-Glo HiBiT Lytic detection
T1 construct: SMARCA2-HiBiT knock-in Hela monoclonal cell (CS302366) and SMARCA4-HiBiT knock-in Hela monoclonal cell (CS3023226) were purchased from Promega; host or cells: HeLa SMARCA4-HiBiT knock-in monoclonal cells (heterozygous knock-in)
T1 sequence (P51532 whole entry): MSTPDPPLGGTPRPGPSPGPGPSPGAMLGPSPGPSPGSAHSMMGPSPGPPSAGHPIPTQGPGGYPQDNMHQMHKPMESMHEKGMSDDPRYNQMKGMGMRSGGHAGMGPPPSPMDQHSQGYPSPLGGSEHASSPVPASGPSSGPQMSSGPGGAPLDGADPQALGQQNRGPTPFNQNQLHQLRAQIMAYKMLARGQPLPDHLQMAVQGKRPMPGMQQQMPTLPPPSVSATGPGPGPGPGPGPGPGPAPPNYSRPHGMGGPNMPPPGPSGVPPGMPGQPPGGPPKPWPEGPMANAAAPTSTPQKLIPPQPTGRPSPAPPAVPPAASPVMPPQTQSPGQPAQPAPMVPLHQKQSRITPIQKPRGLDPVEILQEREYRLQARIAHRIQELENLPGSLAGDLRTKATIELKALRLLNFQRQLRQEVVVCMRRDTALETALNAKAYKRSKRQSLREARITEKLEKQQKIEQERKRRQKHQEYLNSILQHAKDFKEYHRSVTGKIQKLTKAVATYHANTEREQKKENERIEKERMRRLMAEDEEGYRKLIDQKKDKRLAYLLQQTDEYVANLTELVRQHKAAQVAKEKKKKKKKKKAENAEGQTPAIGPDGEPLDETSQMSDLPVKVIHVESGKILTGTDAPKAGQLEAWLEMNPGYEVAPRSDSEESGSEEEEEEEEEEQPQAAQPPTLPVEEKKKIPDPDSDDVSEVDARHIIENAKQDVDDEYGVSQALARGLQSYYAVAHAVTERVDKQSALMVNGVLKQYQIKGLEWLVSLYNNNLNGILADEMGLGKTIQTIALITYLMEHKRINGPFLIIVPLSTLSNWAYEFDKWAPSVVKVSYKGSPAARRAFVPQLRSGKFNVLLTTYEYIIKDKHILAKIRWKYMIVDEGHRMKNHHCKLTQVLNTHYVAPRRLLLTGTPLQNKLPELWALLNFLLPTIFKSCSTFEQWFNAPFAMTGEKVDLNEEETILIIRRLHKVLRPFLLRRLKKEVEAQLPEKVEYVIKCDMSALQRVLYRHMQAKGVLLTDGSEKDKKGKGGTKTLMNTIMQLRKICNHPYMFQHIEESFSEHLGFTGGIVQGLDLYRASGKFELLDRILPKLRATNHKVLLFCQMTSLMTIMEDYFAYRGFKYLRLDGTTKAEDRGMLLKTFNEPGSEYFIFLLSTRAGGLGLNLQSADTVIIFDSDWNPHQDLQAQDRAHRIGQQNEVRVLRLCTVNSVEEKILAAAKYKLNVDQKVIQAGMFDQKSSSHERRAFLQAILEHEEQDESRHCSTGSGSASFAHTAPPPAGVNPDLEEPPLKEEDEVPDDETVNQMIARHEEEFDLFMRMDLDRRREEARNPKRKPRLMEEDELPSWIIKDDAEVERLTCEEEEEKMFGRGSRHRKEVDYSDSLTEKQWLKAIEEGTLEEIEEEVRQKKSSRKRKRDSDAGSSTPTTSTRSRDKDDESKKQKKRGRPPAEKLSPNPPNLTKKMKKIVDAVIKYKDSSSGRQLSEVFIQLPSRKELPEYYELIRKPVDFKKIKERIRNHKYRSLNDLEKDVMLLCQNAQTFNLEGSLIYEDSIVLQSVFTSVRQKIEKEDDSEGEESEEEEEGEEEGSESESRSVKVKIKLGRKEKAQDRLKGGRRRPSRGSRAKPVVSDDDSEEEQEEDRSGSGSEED
Description: (§1) Example A. SMARCA2 HiBiT and SMARCA4 HiBiT Degradation Assay
(§2) HiBiT peptide knock-in of SMARCA2 in LgBiT expressing HEK293T cells was performed by CRISPR-mediated tagging system as described Promega. The homozygous HiBiT knock-in on c-terminus SMARCA2 was confirmed by sanger sequence. SMARCA2-HiBiT knock-in Hela monoclonal cell (CS302366) and SMARCA4-HiBiT knock-in Hela monoclonal cell (CS3023226) were purchased from Promega. The heterozygous HiBiT-knock-in was confirmed by sanger sequence in both SMARCA2-HiBiT and SMARCA4-HiBiT monoclonal cells.
(§3) SMARCA2 HiBiT and SMARCA4 HiBiT degradation assay in HeLa cells
(§4) Dispense 10 ul aliquot of prepared Hela-SMARCA2-HiBiT or Hela-SMARCA4-HiBiT cells (1:1 ratio of cells:Trypan Blue (#1450013, Bio-Rad)) onto cell counting slide (#145-0011, Bio-Rad) and obtain cell density and cell viability using cell counter (TC20, Bio-Rad). Remove appropriate volume of resuspended cells from culture flask to accommodate 2500 cells/well @20 μL/well. Transfer Hela-HiBiT cells to 50 mL conical (#430290, Corning). Spin down at 1000 rpm for 5 min using tabletop centrifuge (SPINCHRON 15, Beckman). Discard supernatant and resuspend cell pellet in modified EMEM (#30-2003, ATCC) cell culture media containing 10% FBS (F2422-500ML, Sigma), and 1X Penicillin/Streptomycin (200 g/L) (30-002-CI, Corning) to a cell density of 125,000 cells/mL. Dispense 20 μLof resuspended Hela-HiBit cells per well in 384-well TC treated plate (#12-565-343, Thermo Scientific) using standard cassette (#50950372, Thermo Scientific) on Multidrop Combi (#5840310, Thermo Scientific) inside laminar flow cabinet.
(§5) Compounds were dissolved in DMSO to make 10 mM stock and 3-fold series dilutions were further conducted keeping the highest concentration 10 RM. Dispense test compounds onto plates using digital liquid dispenser (D300E, Tecan). Incubate plates in humidified tissue culture incubator @37° C. for 18 hours. Add 20 μL of prepared Nano-Glo® HiBiT Lytic detection buffer (N3050, Promega) to each well of 384-well plate using small tube cassette (#24073295, Thermo Scientific) on Multidrop Combi, incubate @ RT for 30-60 min. Read plates on microplate reader (Envision 2105, PerkinElmer) using 384 well Ultra-Sensitive luminescence mode. Raw data files and compound information reports are swept into centralized data lake and deconvoluted using automated scripts designed by TetraScience, Inc. Data analysis, curve-fitting and reporting done in Dotmatics Informatics Suite using Screening Ultra module.
(§6) In Table 1, A=DC50<0.1 RM; B=0.1 μM≤DC50<1 μM and C=DC50>1 μM. In Table 4, A=Dmax>75% and B=50%<Dmax<75% and C=Dmax<50%.

[3] = molecular target: T2, SMARCA2 (Homo sapiens, UniProt P51531); assay: SMARCA2 HiBiT degradation assay in HeLa cells; type: cell-based; conditions: 18 hours incubation, Nano-Glo HiBiT Lytic detection
T2 construct: SMARCA2-HiBiT knock-in Hela monoclonal cell (CS302366) and SMARCA4-HiBiT knock-in Hela monoclonal cell (CS3023226) were purchased from Promega; host or cells: HeLa SMARCA2-HiBiT knock-in monoclonal cells (heterozygous knock-in)
T2 sequence (P51531 whole entry): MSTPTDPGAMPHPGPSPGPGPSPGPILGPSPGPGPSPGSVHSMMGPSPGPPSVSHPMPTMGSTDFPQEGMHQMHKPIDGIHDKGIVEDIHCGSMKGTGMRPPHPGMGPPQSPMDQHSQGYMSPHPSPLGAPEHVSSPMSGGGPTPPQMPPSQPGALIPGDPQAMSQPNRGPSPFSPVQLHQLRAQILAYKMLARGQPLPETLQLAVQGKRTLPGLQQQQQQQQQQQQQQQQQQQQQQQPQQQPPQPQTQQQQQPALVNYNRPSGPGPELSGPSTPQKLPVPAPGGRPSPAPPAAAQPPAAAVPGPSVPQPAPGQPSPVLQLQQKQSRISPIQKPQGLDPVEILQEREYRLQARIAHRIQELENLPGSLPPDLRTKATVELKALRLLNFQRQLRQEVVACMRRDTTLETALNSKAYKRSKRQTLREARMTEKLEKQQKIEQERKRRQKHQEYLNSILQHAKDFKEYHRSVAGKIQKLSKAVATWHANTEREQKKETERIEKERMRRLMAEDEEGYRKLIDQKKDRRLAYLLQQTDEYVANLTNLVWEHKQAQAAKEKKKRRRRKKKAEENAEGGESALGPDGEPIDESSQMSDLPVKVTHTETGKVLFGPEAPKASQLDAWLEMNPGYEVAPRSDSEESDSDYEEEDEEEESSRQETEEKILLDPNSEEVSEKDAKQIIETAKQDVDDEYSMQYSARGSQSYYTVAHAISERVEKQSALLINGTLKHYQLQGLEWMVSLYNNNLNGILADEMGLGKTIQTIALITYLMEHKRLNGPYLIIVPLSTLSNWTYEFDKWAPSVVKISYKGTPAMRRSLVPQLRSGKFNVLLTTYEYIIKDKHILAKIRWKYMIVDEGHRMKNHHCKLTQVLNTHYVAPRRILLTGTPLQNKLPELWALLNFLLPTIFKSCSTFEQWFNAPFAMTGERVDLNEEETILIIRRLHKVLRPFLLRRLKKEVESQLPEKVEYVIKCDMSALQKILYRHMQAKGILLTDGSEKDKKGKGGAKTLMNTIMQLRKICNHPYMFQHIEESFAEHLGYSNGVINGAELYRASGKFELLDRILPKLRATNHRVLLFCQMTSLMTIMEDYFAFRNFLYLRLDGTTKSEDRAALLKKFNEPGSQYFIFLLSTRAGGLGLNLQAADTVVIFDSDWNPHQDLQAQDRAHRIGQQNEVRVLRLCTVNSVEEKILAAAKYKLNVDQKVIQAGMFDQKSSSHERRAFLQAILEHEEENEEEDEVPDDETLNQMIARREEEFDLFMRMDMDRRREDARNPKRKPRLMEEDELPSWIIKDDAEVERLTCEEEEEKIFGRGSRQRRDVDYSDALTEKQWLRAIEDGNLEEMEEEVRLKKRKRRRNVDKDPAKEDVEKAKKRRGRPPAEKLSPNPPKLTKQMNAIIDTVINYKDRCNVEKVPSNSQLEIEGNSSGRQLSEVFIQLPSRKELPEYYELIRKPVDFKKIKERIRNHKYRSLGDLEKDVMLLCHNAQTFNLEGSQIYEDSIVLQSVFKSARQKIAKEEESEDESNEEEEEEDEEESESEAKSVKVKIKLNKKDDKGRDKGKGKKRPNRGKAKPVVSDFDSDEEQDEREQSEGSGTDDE
Description: as §1, §2, §3, §4, §5, §6

Row | DC50 [2] | Dmax [2] | DC50 [3] | Dmax [3] | SMILES | effects on cell proliferation inhibition [1]
1 |  |  |  |  | O=C(/C=C/N1C[C@H]2C[C@@H]1CN2c1ccccn1)c1ccccc1O [PFI-3] | none to minor effects
2 | > 1000 nM | < 50% | 100 to 1000 nM | < 50% | C[C@@H]1CN(CC2CCN(c3ccc4cnn(C5CCC(=O)NC5=O)c4c3)CC2)C[C@H](C)N1C(=O)N1CCN2c3cc(-c4ccccc4O)nnc3NC[C@H]2C1 (stereo partly drawn) [Example 5, 3-(6-(4-(((3R,5S)-4-((S)-2-(2-hydroxyphenyl)-6,6a,7,8,9,10-hexahydro-5H-pyrazino[1′,2′:4,5]pyrazino[2,3-c]pyridazine-8-carbonyl)-3,5-dimethylpiperazin-1-yl)methyl)piperidin-1-yl)-1H-indazol-1-yl)piperidine-2,6-dione] | 
3 | > 1000 nM |  | < 100 nM |  | C[C@@H]1CN(CC2CCN(c3ccc(C(=O)NC4CCC(=O)NC4=O)c(F)c3)CC2)C[C@H](C)N1C(=O)N1CCN2c3cc(-c4ccccc4O)nnc3NC[C@H]2C1 (stereo partly drawn) [Example 1, N-(2,6-dioxopiperidin-3-yl)-2-fluoro-4-(4-(((3R,5S)-4-((S)-2-(2-hydroxyphenyl)-6,6a,7,8,9,10-hexahydro-5H-pyrazino[1′,2′:4,5]pyrazino[2,3-c]pyridazine-8-carbonyl)-3,5-dimethylpiperazin-1-yl)methyl)piperidin-1-yl)benzamide] | 
4 | < 100 nM | > 75% | < 100 nM | > 75% | CC[C@]12CNc3nnc(-c4ccccc4O)cc3N1C[C@H](Oc1ccc(CN3CCN(c4ccc(NC5CCC(=O)NC5=O)cc4)CC3)cn1)C2 (stereo partly drawn) [Example 10, 3-((4-(4-((6-(((6aS,8R)-6a-ethyl-2-(2-hydroxyphenyl)-5,6,6a,7,8,9-hexahydro-pyrrolo[1′,2′:4,5]pyrazino[2,3-c]pyridazin-8-yl)oxy)pyridin-3-yl)methyl)piperazin-1-yl)phenyl)amino)piperidine-2,6-dione] | 
